The target in the assay is T1, phosphodiesterase 4 (PDE4), high-affinity rolipram binding sites (PDE4H).
T1 construct: native PDE4 in particulate (cell membrane) portion of guinea pig whole brain; subtype not specified
Kind of assay: [3H]-rolipram radioligand displacement on guinea pig brain membranes; weak, […] displacement at […]. Details: species or system Cavia porcellus. Conditions: read-out: EC50 (the source's name). (In general: In a radioligand displacement assay an active substance lowers the binding of a labelled ligand.)

Where only a bound is given, the exact number is not on record here.

As for `COc1ccc(-c2coc3cc(O)cc(O)c3c2=O)cc1` [Biochanin A], the IC50 was > 300 µM.

The values are drawn from PMC3062156, “Biochanin A, a Phytoestrogenic Isoflavone with Selective Inhibition of Phosphodiesterase 4, Suppresses Ovalbumin-Induced Airway Hyperresponsiveness” (Evidence-based Complementary and Alternative Medicine : eCAM, 2011).
